We go through 1 molecule from ChEMBL document CHEMBL4680157, “Design, synthesis and biological evaluation of novel TRβ selective agonists sustained by ADME-toxicity analysis” (Eur J Med Chem, 2020).

SMILES strings stand for the structures.

A short description of series [1]: Toxicity in F344 rat assessed as increase in heart weight at 50 to 100 ug per 100 g body weight, ig administered daily for 3 days. As to conditions: in vivo, po, 72 h, dose 50-100 µg, time 3 day.
A short description of series [2]: Toxicity in F344 rat assessed as increase in heart and body weight ratio at 50 to 100 ug per 100 g body weight, ig administered daily for 3 days. Conditions: in vivo, po, 72 h, dose 50-100 µg, time 3 day.
The nature of series [3]: Toxicity in F344 rat assessed as reduction in liver and body weight ratio at 50 to 100 ug per 100 g body weight, ig administered daily for 3 days. The format is tissue-based. Conditions: in vivo, po, 72 h, dose 50-100 µg, time 3 day.
Series [4] can be described thus: Toxicity in F344 rat assessed as effect on serum AST/GOT level at 20 ug per 100 g of body weight, ig administered daily for 3 days (reference value: 153 +/- 11 U/L). As to conditions: in vivo, po, 72 h, dose 20 µg, time 3 day.
The nature of series [5]: Toxicity in F344 rat assessed as effect on serum ALT/GPT level at 20 ug per 100 g of body weight, ig administered daily for 3 days (reference value: 46 +/- 4 U/L). Conditions: in vivo, po, 72 h, dose 20 µg, time 3 day.
Series [6] in a line: Toxicity in F344 rat assessed as effect on serum bilirubin level at 20 ug per 100 g of body weight, ig administered daily for 3 days (reference value: 1.4 +/- 0.2 mg/dl). Conditions: in vivo, po, 72 h, dose 20 µg, time 3 day.
Series [7] is described as follows: Toxicity in F344 rat assessed as effect on serum glucose level at 20 ug per 100 g of body weight, ig administered daily for 3 days (reference value: 151 +/- 13.5 mg/dl). As to conditions: in vivo, po, 72 h, dose 20 µg, time 3 day.
Series [8] is described as follows: Toxicity in F344 rat assessed as effect on serum cholesterol level at 20 ug per 100 g of body weight, ig administered daily for 3 days (reference value: 67.2 +/- 2.5 mg/dl). Conditions: in vivo, po, 72 h, dose 20 µg, time 3 day.
A short description of series [9]: Toxicity in F344 rat assessed as effect on serum triglycerides level at 20 ug per 100 g of body weight, ig administered daily for 3 days (reference value: 86.8 +/- 10.4 mg/dl). Conditions: in vivo, po, 72 h, dose 20 µg, time 3 day.

Take `N[C@@H](Cc1cc(I)c(Oc2ccc(O)c(I)c2)c(I)c1)C(=O)O` [LIOTHYRONINE]: the Activity entry in series [1] was “Toxic”; in series [2], “Toxic”; in series [3] it was “Toxic”; in [4], 159 U/L; in [5], 53 U/L; in series [6], 1.4 mg/dL. Further, the Activity in [7] was 139 mg/dL; in [8] it was 65.2 mg/dL; in series [9], 90.2 mg/dL.
